Laboratory results reported in US12023333B2, “Phenyl-sulfamoyl.benzoyc acids as ERAP1 modulators” (GREY WOLF THERAPEUTICS LIMITED, priority 2019, dated 2024).

Target: T1, Purified ERAP1(37-941)-10His (ERAP1) (Homo sapiens, UniProt Q9NZ08)
T1 construct: Purified ERAP1(37-941)-10His (ERAP1); 10His (C)
Assay: ERAP1 mediated hydrolysis of an amide substrate measured in a biochemical system (10-mer decapeptide substrate)
Settings: 10-mer substrate, 23° C. for 1 h, excitation 279 nm and emission 355 nm; read-out: IC50 vs Decapeptide WRVYEKC(Dnp)ALK-acid (where Dnp is Dinitrophenyl maleimide) (10-mer)
Experimental: Biological Assay 1: ERAP1 Mediated Hydrolysis of an Amide Substrate Measured in a Biochemical System
1× Assay buffer (AB): 25 mM Bis-tris propane, 0.05% w/v Hydroxypropylmethylcellulose pH 7.75 made with Optima grade water
Decapeptide WRVYEKC(Dnp)ALK-acid (where Dnp is Dinitrophenyl maleimide) (10-mer) L-Leucine 7-amido-4-methylcoumarin (L-AMC)
12.5 μL ERAP1 enzyme in 1×AB was combined with 250 nL test compound in DMSO. 12.5 μL of either 240 μM L-AMC in 1×AB or 100 μM 10-mer in 1×AB was added to the reaction and incubated at 23° C. for 1 h. For detection, plates were read at excitation 365 nm and emission 442 nm (L-AMC) or excitation 279 nm and emission 355 nm (10-mer). Compound IC50 was determined using a 4 parameter equation.

T1 sequence (Q9NZ08 37-941): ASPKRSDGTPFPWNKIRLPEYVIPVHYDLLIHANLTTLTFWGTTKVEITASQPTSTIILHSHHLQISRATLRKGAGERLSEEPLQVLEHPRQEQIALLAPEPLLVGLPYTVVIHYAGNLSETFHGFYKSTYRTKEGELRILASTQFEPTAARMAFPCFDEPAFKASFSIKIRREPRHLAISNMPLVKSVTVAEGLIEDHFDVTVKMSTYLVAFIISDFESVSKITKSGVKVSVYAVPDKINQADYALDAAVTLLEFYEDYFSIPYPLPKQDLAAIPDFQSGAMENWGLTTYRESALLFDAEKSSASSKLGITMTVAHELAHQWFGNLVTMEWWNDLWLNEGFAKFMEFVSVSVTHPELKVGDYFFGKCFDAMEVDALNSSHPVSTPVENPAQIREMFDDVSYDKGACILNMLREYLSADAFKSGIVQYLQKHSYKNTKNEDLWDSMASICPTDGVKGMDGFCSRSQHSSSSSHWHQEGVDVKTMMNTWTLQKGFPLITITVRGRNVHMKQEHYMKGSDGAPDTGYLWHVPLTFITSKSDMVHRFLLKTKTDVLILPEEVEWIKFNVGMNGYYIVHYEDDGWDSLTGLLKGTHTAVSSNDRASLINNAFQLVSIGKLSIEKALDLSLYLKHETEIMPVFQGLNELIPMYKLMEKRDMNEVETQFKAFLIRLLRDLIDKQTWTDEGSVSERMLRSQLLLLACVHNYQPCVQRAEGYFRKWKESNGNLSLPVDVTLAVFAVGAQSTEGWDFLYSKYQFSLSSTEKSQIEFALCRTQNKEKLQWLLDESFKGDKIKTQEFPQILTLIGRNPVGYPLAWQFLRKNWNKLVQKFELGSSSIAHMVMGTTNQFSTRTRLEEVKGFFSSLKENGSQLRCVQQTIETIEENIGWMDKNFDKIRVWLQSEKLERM

Row | SMILES | IC50 [nM]
1 | COc1ccc(C(=O)O)cc1S(=O)(=O)Nc1cc(C(F)(F)F)ccc1-c1ccccc1 [Example 1, 4-methoxy-3-(N-(4-(trifluoromethyl)-[1,1′-biphenyl]-2-yl)sulfamoyl)benzoic acid] | < 500
2 | COc1ccc(C(=O)O)cc1S(=O)(=O)Nc1cc(C(F)(F)F)ccc1-c1cccnc1 [Example 2, 4-methoxy-3-(N-(2-(pyridin-3-yl)-5-(trifluoromethyl)phenyl)sulfamoyl)benzoic acid] | < 500
3 | COc1ccc(C(=O)O)cc1S(=O)(=O)Nc1cc(C(F)(F)F)ccc1-c1cccs1 [Example 3, 4-methoxy-3-(N-(2-(thiophen-2-yl)-5-(trifluoromethyl)phenyl)sulfamoyl)benzoic acid] | < 500
4 | COc1ccc(C(=O)O)cc1S(=O)(=O)Nc1cc(C(F)(F)F)ccc1-c1cc(C)nn1C [Example 4, 3-(N-(2-(1,3-dimethylpyrazol-5-yl)-5-(trifluoromethyl)phenyl)sulfamoyl)-4-methoxybenzoic acid] | < 5000
5 | COc1ccc(C(=O)O)cc1S(=O)(=O)Nc1cc(C(F)(F)F)ccc1-c1ccnn1CC(C)C [Example 5, 3-(N-(2-(1-isobutylpyrazol-5-yl)-5-(trifluoromethyl)phenyl)sulfamoyl)-4-methoxybenzoic acid] | < 5000
6 | COc1ccc(C(=O)O)cc1S(=O)(=O)Nc1cc(C(F)(F)F)ccc1-c1cccc(C)c1 [Example 6, 4-methoxy-3-(N-(3′-methyl-4-(trifluoromethyl)-[1,1′-biphenyl]-2-yl)sulfamoyl)benzoic acid] | < 500
7 | COc1ccc(C(=O)O)cc1S(=O)(=O)Nc1cc(C(F)(F)F)ccc1-c1cccc(C#N)c1 [Example 7, 3-(N-(3′-cyano-4-(trifluoromethyl)-[1,1′-biphenyl]-2-yl)sulfamoyl)-4-methoxybenzoic acid] | < 500
8 | COc1ccc(C(=O)O)cc1S(=O)(=O)Nc1cc(C(F)(F)F)ccc1-c1ccccc1C [Example 8, 4-methoxy-3-(N-(2′-methyl-4-(trifluoromethyl)-[1,1′-biphenyl]-2-yl)sulfamoyl)benzoic acid] | < 500
9 | COc1ccc(C(=O)O)cc1S(=O)(=O)Nc1cc(C(F)(F)F)ccc1-c1ccccc1F [Example 9, 3-(N-(2′-fluoro-4-(trifluoromethyl)-[1,1′-biphenyl]-2-yl)sulfamoyl)-4-methoxybenzoic acid] | < 500
10 | COc1ccc(C(=O)O)cc1S(=O)(=O)Nc1cc(C(F)(F)F)ccc1-c1ccccc1Cl [Example 10, 3-(N-(2′-chloro-4-(trifluoromethyl)-[1,1′-biphenyl]-2-yl)sulfamoyl)-4-methoxybenzoic acid] | < 5000
11 | COc1ccccc1-c1ccc(C(F)(F)F)cc1NS(=O)(=O)c1cc(C(=O)O)ccc1OC [Example 11, 4-methoxy-3-(N-(2′-methoxy-4-(trifluoromethyl)-[1,1′-biphenyl]-2-yl)sulfamoyl)benzoic acid] | < 5000
12 | COc1ccc(C(=O)O)cc1S(=O)(=O)Nc1cc(C(F)(F)F)ccc1-c1ccc(F)cc1 [Example 12, 3-(N-(4′-fluoro-4-(trifluoromethyl)-[1,1′-biphenyl]-2-yl)sulfamoyl)-4-methoxybenzoic acid] | < 500
13 | COc1ccc(C(=O)O)cc1S(=O)(=O)Nc1cc(C(F)(F)F)ccc1-c1ccccc1C#N [Example 13, 3-(N-(2′-cyano-4-(trifluoromethyl)-[1,1′-biphenyl]-2-yl)sulfamoyl)-4-methoxybenzoic acid] | < 5000
14 | COc1ccc(C(=O)O)cc1S(=O)(=O)Nc1cc(C(F)(F)F)ccc1-c1ccncc1 [Example 14, 4-methoxy-3-(N-(2-(pyridin-4-yl)-5-(trifluoromethyl)phenyl)sulfamoyl)benzoic acid] | > 5000
15 | COc1ccc(C(=O)O)cc1S(=O)(=O)Nc1cc(C(F)(F)F)ccc1-c1cccc(F)c1 [Example 15, 3-(N-(3′-fluoro-4-(trifluoromethyl)-[1,1′-biphenyl]-2-yl)sulfamoyl)-4-methoxybenzoic acid] | < 500

Continued, values first:

Row | IC50 [nM] | SMILES
16 | < 5000 | COc1ccc(C(=O)O)cc1S(=O)(=O)Nc1cc(C(F)(F)F)ccc1-c1ccc(C#N)cc1 [Example 16, 3-(N-(4′-cyano-4-(trifluoromethyl)-[1,1′-biphenyl]-2-yl)sulfamoyl)-4-methoxybenzoic acid]
17 | < 5000 | COc1cccc(-c2ccc(C(F)(F)F)cc2NS(=O)(=O)c2cc(C(=O)O)ccc2OC)c1 [Example 17, 4-methoxy-3-(N-(3′-methoxy-4-(trifluoromethyl)-[1,1′-biphenyl]-2-yl)sulfamoyl)benzoic acid]
18 | < 500 | COc1ccc(C(=O)O)cc1S(=O)(=O)Nc1cc(C(F)(F)F)ccc1-c1ccoc1 [Example 18, 3-(N-(2-(furan-3-yl)-5-(trifluoromethyl)phenyl)sulfamoyl)-4-methoxybenzoic acid]
19 | < 500 | CCc1ccc(C(=O)O)cc1S(=O)(=O)Nc1cc(C(F)(F)F)ccc1-c1ccccc1 [Example 19, 4-ethyl-3-(N-(4-(trifluoromethyl)-[1,1′-biphenyl]-2-yl)sulfamoyl) benzoic acid]
20 | < 500 | COc1ccc(C(=O)O)cc1S(=O)(=O)Nc1cc(C(F)(F)F)ccc1-c1ccsc1 [Example 20, 4-methoxy-3-(N-(2-(thiophen-3-yl)-5-(trifluoromethyl)phenyl)sulfamoyl) benzoic acid]
21 | < 500 | CCc1ccc(C(=O)O)cc1S(=O)(=O)Nc1cc(C(F)(F)F)ccc1-c1cccc(C#N)c1 [Example 21, 3-(N-(3′-cyano-4-(trifluoromethyl)-[1,1′-biphenyl]-2-yl)sulfamoyl)-4-ethylbenzoic acid]
22 | < 500 | CCc1ccc(C(=O)O)cc1S(=O)(=O)Nc1cc(C(F)(F)F)ccc1-c1cccs1 [Example 22, 4-ethyl-3-(N-(2-(thiophen-2-yl)-5-(trifluoromethyl)phenyl)sulfamoyl)benzoic acid]
23 | < 500 | COc1ccc(C(=O)O)cc1S(=O)(=O)Nc1cc(C(F)(F)F)ccc1-c1ccco1 [Example 23, 3-(N-(2-(furan-2-yl)-5-(trifluoromethyl)phenyl)sulfamoyl)-4-methoxybenzoic acid]
24 | < 500 | CCc1ccc(C(=O)O)cc1S(=O)(=O)Nc1cc(C(F)(F)F)ccc1-c1cccc(F)c1 [Example 24, 4-ethyl-3-(N-(3′-fluoro-4-(trifluoromethyl)-[1,1′-biphenyl]-2-yl)sulfamoyl) benzoic acid]
25 | < 5000 | COc1ccc(C(=O)O)cc1S(=O)(=O)Nc1cc(C(F)(F)F)ccc1-c1cnco1 [Example 25, 4-methoxy-3-(N-(2-(oxazol-5-yl)-5-(trifluoromethyl)phenyl)sulfamoyl) benzoic acid]
26 | < 500 | COc1ccc(C(=O)O)cc1S(=O)(=O)Nc1cc(C(F)(F)F)ccc1-c1ccccn1 [Example 26, 4-methoxy-3-(N-(2-(pyridin-2-yl)-5-(trifluoromethyl)phenyl)sulfamoyl) benzoic acid]
27 | < 500 | CCc1ccc(C(=O)O)cc1S(=O)(=O)Nc1cc(C(F)(F)F)ccc1-c1cccnc1 [Example 27, 4-ethyl-3-(N-(2-(pyridin-3-yl)-5-(trifluoromethyl)phenyl)sulfamoyl)benzoic acid]
28 | > 5000 | COc1ccc(C(=O)O)cc1S(=O)(=O)Nc1cc(C(F)(F)F)ccc1-n1cncn1 [Example 28, 3-(N-(2-(1,2,4-triazol-1-yl)-5-(trifluoromethyl)phenyl)sulfamoyl)-4-methoxybenzoic acid]
29 | < 5000 | CCc1ccc(C(=O)O)cc1S(=O)(=O)Nc1cc(C(F)(F)F)ccc1-n1cncn1 [Example 29, 3-(N-(2-(1,2,4-triazol-1-yl)-5-(trifluoromethyl)phenyl)sulfamoyl)-4-ethylbenzoic acid]
30 | < 5000 | COc1ccc(C(=O)O)cc1S(=O)(=O)Nc1cc(C(F)(F)F)ccc1-n1cccn1 [Example 30, 3-(N-(2-(pyrazol-1-yl)-5-(trifluoromethyl)phenyl)sulfamoyl)-4-methoxybenzoic acid]
31 | < 500 | CCc1ccc(C(=O)O)cc1S(=O)(=O)Nc1cc(C(F)(F)F)ccc1-n1cccn1 [Example 31, 3-(N-(2-(pyrazol-1-yl)-5-(trifluoromethyl)phenyl)sulfamoyl)-4-ethylbenzoic acid]
32 | < 500 | CCc1ccc(C(=O)O)cc1S(=O)(=O)Nc1cc(S(C)(=O)=O)ccc1-c1ccccc1 [Example 32, 4-ethyl-3-(N-(4-(methylsulfonyl)-[1,1′-biphenyl]-2-yl)sulfamoyl)benzoic acid]
33 | < 500 | CCc1ccc(C(=O)O)cc1S(=O)(=O)Nc1cc(S(C)(=O)=O)ccc1-c1cccc(F)c1 [Example 33, 4-ethyl-3-(N-(3′-fluoro-4-(methylsulfonyl)-[1,1-biphenyl]-2-yl)sulfamoyl)benzoic acid]
34 | < 500 | CCc1ccc(C(=O)O)cc1S(=O)(=O)Nc1cc(S(C)(=O)=O)ccc1-c1cccs1 [Example 34, 4-ethyl-3-(N-(5-(methylsulfonyl)-2-(thiophen-2-yl)phenyl)sulfamoyl) benzoic acid]
35 | < 500 | COc1ccc(C(=O)O)cc1S(=O)(=O)Nc1cc(C(F)(F)F)ccc1-n1cccc1 [Example 35, 3-(N-(2-(pyrrol-1-yl)-5-(trifluoromethyl)phenyl)sulfamoyl)-4-methoxybenzoic acid]
36 | < 500 | CCc1ccc(C(=O)O)cc1S(=O)(=O)Nc1cc(C(F)(F)F)ccc1-n1cccc1 [Example 36, 3-(N-(2-(pyrrol-1-yl)-5-(trifluoromethyl)phenyl)sulfamoyl)-4-ethylbenzoic acid]
